From patent US6291676A, “Water-soluble derivatives of camptothecin/homocamptothecin” (priority 2000, dated 2001)
Where two headings read alike, the source gives them in different places.

How the values were obtained:
topoisomerase I [1] = assay: Reversal of topoisomerase I cleavable complexes after NaCl addition; assay type: biochemical; details: after 0.35M NaCl; for stability of cleavable complexes: relative to camptothecin and SN-38
Description: (§1) Evaluation of the Relative Abilities of the Novel Polyamine Camptothecin Analogs to Induce Topoisomerase I Mediated DNA Single Strand Breaks. We have evaluated the abilities of the novel compounds of the present invention to inhibit the topoisomerase I enzyme. In these experiments the oligonucleotide was labeled at the 3'-end of the upper (scissile) strand with 32P-α-cordycepin and terminal transferase (Pommier, Y., Kohlhagen, G., Kohn, F., Leteurtre, F., Wani, M. C., and Wall, M. E. Proc. Natl. Acad. Sci. U.S.A. 92:8861-8865, 1995). Topoisomerase I (Top1) cleavage generates a 23mer that can be easily detected by electrophoresis and quantitated by Phosphorimager analysis. Tanizawa et al. (Tanizawa, A., Kohn, K. W., Kohlhagen, G., Leteurtre, F., and Pommier, Y. Biochemistry […]:7200-7206, 1995) have previously shown that camptothecin derivatives differ in the manner in which they stabilize the top1 cleavable complexes that they induce. The novel polyamine camptothecins of the present invention were compared in this assay. 0.35M NaCl was added to force top 1-mediated DNA religation and DNA cleavage was measured at various times after NaCl addition. FIG. 9 is a typical phosphoimager picture showing the timecourse of the effects of various camptothecins on the relaxation of DNA in the presence of topoisomerase I. Topoisomerase I-mediated cleavage generates DNA fragments that can be readily detected by electrophoresis and quantitated by phosphorimager analysis.

[2] = cited from earlier work
topoisomerase I [3] = assay: Topoisomerase I mediated DNA cleavage (cleavable complex induction); assay type: biochemical; details: for dose response with respect to inducing DNA fragmentation: FIG. 10; for distribution of cleavage sites vs camptothecin or SN-38 / induction of cleavable complex formation: topoisomerase I; for induction of cleavable complex formation: 3'-32P-labeled oligonucleotide
Description: as §1
FIG. 10 is a phosphoimager picture showing the dose response of various camptothecin compounds described in the present invention on the relaxation of DNA in the presence of topoisomerase I. Topoisomerase I-mediated cleavage generates DNA fragments that can be readily detected by electrophoresis and quantitated by phosphorimager analysis as shown.
FIG. 11 contains a phosphoimager picture (bottom figure) showing the dose response effects of several of the novel polyamine camptothecins of the current invention on the relaxation of DNA in the presence of topoisomerase I. Topoisomerase I-mediated cleavage generates DNA fragments that can be readily detected by electrophoresis and quantitated by phosphorimager analysis (top figure).

[4] = Fluorescence anisotropy titration: association with electroneutral DMPC vesicles; assay type: physicochemical; details: PBS buffer, pH 7.4, physiological temperature, DMPC
Procedure: (§2) Vesicle Preparation. Small unilamellar vesicle (SUV) suspensions were prepared the day of an experiment by the method of Burke et al. (T. G. Burke, A. K. Mishra, M. C. Wani, and M. E. Wall, Lipid Bilayer Partitioning and Stability of Camptothecin Drugs, Biochem., 32(20), 5352 (1993)). Briefly, stock lipid suspensions containing 200 mg/mL lipid in phosphate buffered saline (PBS, pH 7.4) were prepared by Vortex mixing for 5-10 min above the TM of the lipid. The lipid dispersions were then sonicated using a bath-type sonicator (Laboratory Supplies Co., Hicksville, N.Y.) for 3-4 h until they became optically clear. […] Each type of vesicle suspension was annealed for 30 min at 37° C. and then used in an experiment.
(§3) Fluorescence Instrumentation. Steady-state fluorescence measurements were obtained on a SLM Model 9850 spectrofluorometer with a thermostated cuvette compartment. This instrument was interfaced with an IBM PS/2 model 55 SX computer. Excitation and emission spectra were recorded with an excitation resolution of 8 nm and an emission resolution of 4 nm. In all cases spectra were corrected for background fluorescence and scatter from unlabeled lipids or from solvents by subtraction of the spectrum of a blank. Steady-state fluorescence intensity measurements were made in the absence of polarizers. Steady-state anisotropy (a) measurements were determined with the instrument in the "T-format" for simultaneous measurement of two polarized intensities. […] The anisotropy was calculated from a =(IVV -GIVH)/(IVV +2GIVH), where G=IHV /IHH and the subscripts refer to vertical and horizontal orientations of the excitation and emission polarizers, respectively.
(§4) Anisotropy measurements for camptothecins were conducted using exciting light in the range of 370 nm to 400 nm and long pass filters on each emission channel in order to isolate the drug's fluorescence signal from background scatter and/or residual fluorescence. […] The combination of exciting light and emission filters allowed us to adequately separate fluorescence from background signal. […]

[5] = aqueous medium; cited from earlier work
[6] = Excited-state lifetime of camptothecin; assay type: physicochemical; details: 37° C
Procedure: We have examined the excited-state lifetime values of camptothecin in PBS, glycerol, and methanol at 37° C. The lifetime values were determined to be 4.7 ns, 3.8 ns, and 3.5 ns, respectively.

[7] = Fluorescence anisotropy titration: association with negatively-charged DMPG vesicles; assay type: physicochemical; details: PBS buffer, pH 7.4, physiological temperature, DMPG
Procedure: as §2, §3, §4

## CCc1c2c(nc3ccc(O)cc13)-c1cc3c(c(=O)n1C2)COC(=O)[C@]3(O)CC [SN-38, 7-ethyl-10-hydroxycamptothecin, reference compound]
Topoisomerase I [1]; compared with camptothecin
  reversal of cleavable complexes: reversed more slowly than those induced by camptothecin

## CC[C@@]1(O)C(=O)OCc2c1cc1n(c2=O)Cc2cc3c(CN(C)C)c(O)ccc3nc2-1 [topotecan]
[2]; PBS
  steady-state fluorescence anisotropy (a): 0.008
[2]; glycerol
  increase of anisotropy value vs PBS: 40 fold
[2]; octanol
  increase of anisotropy value vs PBS: 9 fold

## CC[C@@]1(O)C(=O)OCc2c1cc1n(c2=O)Cc2c-1nc1ccccc1c2CCCCCN=[N+]=[N-] [7-(5-azidopentyl)]
Topoisomerase I [3]
  dose response with respect to inducing DNA fragmentation: particularly good dose response

## CC[C@@]1(O)C(=O)OCc2c1cc1n(c2=O)Cc2c-1nc1ccccc1c2CCN=[N+]=[N-] [7-(2-azidoethyl)]
Topoisomerase I [3]
  dose response with respect to inducing DNA fragmentation: particularly good dose response

## CC[C@@]1(O)C(=O)OCc2c1cc1n(c2=O)Cc2c-1nc1ccccc1c2CCNC(=N)N [compound #9]
Topoisomerase I [3]
  distribution of cleavage sites vs camptothecin or SN-38: comparable to those generated by camptothecin or 7-ethyl-10-hydroxycamptothecin (SN-38)
  induction of cleavable complex formation: good inducers of cleavable complex formation
Topoisomerase I [1]
  stability of cleavable complexes: intermediate stabilities between camptothecin and SN-38

## CC[C@@]1(O)C(=O)OCc2c1cc1n(c2=O)Cc2cc3ccccc3nc2-1 [Camptothecin]
[4]
  Overall association constant KDMPC: 100 M⁻¹
[5]
  half-life of lactone ring hydrolysis: approximately 20 min
[6]; DMPC bilayers
  average excited-state lifetime, membrane-bound drug: 3.7 ns
[6]; PBS
  excited-state lifetime: 4.7 ns
[6]; glycerol
  excited-state lifetime: 3.8 ns
[6]; methanol
  excited-state lifetime: 3.5 ns
[2]; vesicles of either DMPC or DMPG
  enhancement in the anisotropy value upon binding to vesicles: 21 fold
[7]
  Overall association constant KDMPG: 100 M⁻¹

## CC[C@@]1(O)C(=O)OCc2c1cc1n(c2=O)Cc2c-1nc1ccccc1c2CCCNC(=N)N [compound #8]
Topoisomerase I [3]
  distribution of cleavage sites vs camptothecin or SN-38: comparable to those generated by camptothecin or 7-ethyl-10-hydroxycamptothecin (SN-38)
  induction of cleavable complex formation: good inducers of cleavable complex formation
Topoisomerase I [1]
  stability of cleavable complexes: intermediate stabilities between camptothecin and SN-38
